US20230139171A1 (SITA Information Networking Computing UK Limited, priority 2019, published 2023)

What was measured:
Type in all cases: cell-based
[1] = biological target: T1, human TLR8 (Homo sapiens, UniProt Q9NR97); assay: TLR8 inhibition reporter assay (HEK-Blue cells, SEAP reporter, R848 stimulation); conditions: HEK-Blue cells overexpressing human TLR8, SEAP reporter, R848 15.9 μM; read-out: TLR8 IC50
T1 construct: host or cells: HEK-Blue cells
T1 sequence (Q9NR97 27-1041): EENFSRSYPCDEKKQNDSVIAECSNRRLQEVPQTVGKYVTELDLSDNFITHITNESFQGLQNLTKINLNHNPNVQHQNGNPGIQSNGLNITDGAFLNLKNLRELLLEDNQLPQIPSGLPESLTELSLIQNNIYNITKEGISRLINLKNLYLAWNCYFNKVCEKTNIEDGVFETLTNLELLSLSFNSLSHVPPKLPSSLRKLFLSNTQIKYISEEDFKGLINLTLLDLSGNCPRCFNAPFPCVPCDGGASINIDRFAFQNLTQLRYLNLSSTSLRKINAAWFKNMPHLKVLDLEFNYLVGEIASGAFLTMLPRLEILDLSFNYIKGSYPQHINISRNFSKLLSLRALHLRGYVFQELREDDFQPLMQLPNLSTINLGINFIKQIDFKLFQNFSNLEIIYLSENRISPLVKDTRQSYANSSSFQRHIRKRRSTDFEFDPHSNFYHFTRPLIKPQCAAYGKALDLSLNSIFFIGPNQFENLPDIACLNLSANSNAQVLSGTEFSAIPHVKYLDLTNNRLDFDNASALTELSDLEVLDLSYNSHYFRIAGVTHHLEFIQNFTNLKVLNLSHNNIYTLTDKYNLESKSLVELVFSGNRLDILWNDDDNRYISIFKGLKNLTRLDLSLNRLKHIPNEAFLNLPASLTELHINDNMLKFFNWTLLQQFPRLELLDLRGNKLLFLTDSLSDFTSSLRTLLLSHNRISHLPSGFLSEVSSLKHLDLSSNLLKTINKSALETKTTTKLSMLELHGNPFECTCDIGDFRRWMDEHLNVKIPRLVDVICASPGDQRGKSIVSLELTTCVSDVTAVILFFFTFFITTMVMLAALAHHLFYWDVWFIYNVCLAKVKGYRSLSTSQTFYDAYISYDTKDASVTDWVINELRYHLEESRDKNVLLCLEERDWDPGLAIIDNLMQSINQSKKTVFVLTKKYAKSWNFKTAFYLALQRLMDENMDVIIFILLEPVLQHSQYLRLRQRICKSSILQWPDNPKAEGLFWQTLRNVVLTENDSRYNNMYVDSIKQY
In short: (§1)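 Agonists used: gardiquimod 7.5 μM (TLR7), R848 15.9 μM (TLR8), ODN2006 5 nM (TLR9), added after 30 min room-temperature compound pre-treatment (0.05 nM–50 μM) of receptor-overexpressing HEK-Blue cells. SEAP reporter (NF-κB/AP-1 driven) read after 22 h at 37 °C; inhibition scaled between agonist+DMSO and reference-inhibitor wells.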

[2] = biological target: T2, human TLR9 (Homo sapiens, UniProt Q9NR96); assay: TLR9 inhibition reporter assay (HEK-Blue cells, SEAP reporter, ODN2006 stimulation); conditions: HEK-Blue cells overexpressing human TLR9, SEAP reporter, ODN2006 5 nM
T2 construct: host or cells: HEK-Blue cells
T2 sequence (Q9NR96 26-1032): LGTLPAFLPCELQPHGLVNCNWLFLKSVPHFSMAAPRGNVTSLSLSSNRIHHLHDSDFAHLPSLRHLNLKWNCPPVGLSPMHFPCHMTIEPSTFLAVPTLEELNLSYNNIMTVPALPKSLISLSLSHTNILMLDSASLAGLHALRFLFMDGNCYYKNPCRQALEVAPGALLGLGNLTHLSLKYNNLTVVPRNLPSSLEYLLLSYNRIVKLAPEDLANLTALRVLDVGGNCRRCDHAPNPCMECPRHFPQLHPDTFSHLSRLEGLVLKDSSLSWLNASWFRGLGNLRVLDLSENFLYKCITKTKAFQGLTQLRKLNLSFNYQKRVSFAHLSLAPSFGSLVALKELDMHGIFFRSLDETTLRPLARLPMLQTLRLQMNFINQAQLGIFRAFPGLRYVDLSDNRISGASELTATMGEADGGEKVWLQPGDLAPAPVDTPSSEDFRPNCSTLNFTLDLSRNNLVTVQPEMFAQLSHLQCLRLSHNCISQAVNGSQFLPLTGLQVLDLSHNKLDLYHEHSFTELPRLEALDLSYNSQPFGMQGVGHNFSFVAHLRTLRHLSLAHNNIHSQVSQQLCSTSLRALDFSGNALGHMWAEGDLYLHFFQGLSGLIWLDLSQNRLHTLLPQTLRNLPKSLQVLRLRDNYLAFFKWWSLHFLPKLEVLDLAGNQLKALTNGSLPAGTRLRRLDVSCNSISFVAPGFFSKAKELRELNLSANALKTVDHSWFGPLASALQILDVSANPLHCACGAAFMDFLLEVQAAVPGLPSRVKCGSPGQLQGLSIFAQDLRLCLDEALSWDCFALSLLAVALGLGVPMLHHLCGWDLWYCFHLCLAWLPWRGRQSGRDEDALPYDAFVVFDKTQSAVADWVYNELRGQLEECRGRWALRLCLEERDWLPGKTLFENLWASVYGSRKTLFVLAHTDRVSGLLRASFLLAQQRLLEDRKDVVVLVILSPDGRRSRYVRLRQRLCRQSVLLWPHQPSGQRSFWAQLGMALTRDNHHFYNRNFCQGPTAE
In short: as §1

[3] = biological target: T3, human TLR7 (Homo sapiens, UniProt Q9NYK1); assay: TLR7 inhibition reporter assay (HEK-Blue cells, SEAP reporter, gardiquimod stimulation); conditions: HEK-Blue cells overexpressing human TLR7, SEAP reporter, gardiquimod 7.5 μM; read-out: TLR7 IC50
T3 construct: host or cells: HEK-Blue cells
T3 sequence (Q9NYK1 27-1049): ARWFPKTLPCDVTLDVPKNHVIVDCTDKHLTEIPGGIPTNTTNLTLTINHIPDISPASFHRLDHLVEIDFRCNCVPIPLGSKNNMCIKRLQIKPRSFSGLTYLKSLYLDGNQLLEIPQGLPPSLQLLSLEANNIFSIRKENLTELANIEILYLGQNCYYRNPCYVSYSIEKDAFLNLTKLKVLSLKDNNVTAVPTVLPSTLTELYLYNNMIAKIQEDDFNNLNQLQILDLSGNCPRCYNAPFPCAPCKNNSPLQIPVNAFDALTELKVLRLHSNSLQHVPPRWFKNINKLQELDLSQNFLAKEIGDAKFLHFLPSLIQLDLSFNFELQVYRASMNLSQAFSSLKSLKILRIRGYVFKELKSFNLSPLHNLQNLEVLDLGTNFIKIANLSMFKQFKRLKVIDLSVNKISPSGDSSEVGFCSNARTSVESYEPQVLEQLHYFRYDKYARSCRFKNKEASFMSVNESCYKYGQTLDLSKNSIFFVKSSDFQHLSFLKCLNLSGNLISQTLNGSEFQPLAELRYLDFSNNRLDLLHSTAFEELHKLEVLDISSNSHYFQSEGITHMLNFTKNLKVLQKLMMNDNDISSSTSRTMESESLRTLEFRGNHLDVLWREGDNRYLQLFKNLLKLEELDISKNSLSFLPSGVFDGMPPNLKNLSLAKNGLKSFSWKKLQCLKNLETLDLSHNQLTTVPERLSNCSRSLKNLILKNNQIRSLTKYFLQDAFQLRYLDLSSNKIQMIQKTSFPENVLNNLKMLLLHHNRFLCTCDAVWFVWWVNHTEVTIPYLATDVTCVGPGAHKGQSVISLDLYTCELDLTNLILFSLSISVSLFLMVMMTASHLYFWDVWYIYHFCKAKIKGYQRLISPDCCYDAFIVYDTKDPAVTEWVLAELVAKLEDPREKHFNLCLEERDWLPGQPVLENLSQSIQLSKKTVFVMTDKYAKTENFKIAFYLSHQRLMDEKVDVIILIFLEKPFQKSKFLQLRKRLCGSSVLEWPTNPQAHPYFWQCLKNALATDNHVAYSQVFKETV
In short: as §1

IC50 [1] [nM]	IC50 [2] [µM]	IC50 [3] [nM]	Compound
0.58	8.35	0.8	CCN(C)C1CCC(c2nc3c(C(C)C)c(-c4cn5ncnc5c(C)c4C)[nH]c3s2)CC1 (single isomer, unassigned) [Example 190, 4-(5-(7,8-dimethyl-[1,2,4]triazolo[1,5-a]pyridin-6-yl)-6-isopropyl-4H-pyrrolo[3,2-d]thiazol-2-yl)-N-ethyl-N-methylcyclohexan-1-amine]
1.79	9.37	1.5	CCN(C)C1CCC(c2nc3c(C(C)C)c(-c4cn5ncnc5c(C)c4C)[nH]c3s2)CC1 (single isomer, unassigned) [Example 191, 4-(5-(7,8-dimethyl-[1,2,4]triazolo[1,5-a]pyridin-6-yl)-6-isopropyl-4H-pyrrolo[3,2-d]thiazol-2-yl)-N-ethyl-N-methylcyclohexan-1-amine]
0.33	16.2	1.67	Cc1c(-c2[nH]c3sc(C4CCC(N5CC6(COC6)C5)CC4)nc3c2C(C)C)cn2ncnc2c1C (single isomer, unassigned) [Example 192, 6-(4-(5-(7,8-dimethyl-[1,2,4]triazolo[1,5-a]pyridin-6-yl)-6-isopropyl-4H-pyrrolo[3,2-d]thiazol-2-yl)cyclohexyl)-2-oxa-6-azaspiro[3.3]heptane]
4.45	7.63	1.97	Cc1c(-c2[nH]c3sc(C4CCC(N5CC6(COC6)C5)CC4)nc3c2C(C)C)cn2ncnc2c1C (single isomer, unassigned) [Example 193, 6-(4-(5-(7,8-dimethyl-[1,2,4]triazolo[1,5-a]pyridin-6-yl)-6-isopropyl-4H-pyrrolo[3,2-d]thiazol-2-yl)cyclohexyl)-2-oxa-6-azaspiro[3.3]heptane]
0.37	9.22	0.9	Cc1c(-c2[nH]c3sc(C4CCC(NC(C)C)CC4)nc3c2C(C)C)cn2ncnc2c1C (single isomer, unassigned) [Example 194, 4-(5-(7,8-dimethyl-[1,2,4]triazolo[1,5-a]pyridin-6-yl)-6-isopropyl-4H-pyrrolo[3,2-d]thiazol-2-yl)-N-isopropylcyclohexan-1-amine]
1.66	5.5	2.24	Cc1c(-c2[nH]c3sc(C4CCC(NC(C)C)CC4)nc3c2C(C)C)cn2ncnc2c1C (single isomer, unassigned) [Example 195, 4-(5-(7,8-dimethyl-[1,2,4]triazolo[1,5-a]pyridin-6-yl)-6-isopropyl-4H-pyrrolo[3,2-d]thiazol-2-yl)-N-isopropylcyclohexan-1-amine]
0.17	12.7	1.13	Cc1c(-c2[nH]c3sc(C4CCC(NCC(C)(C)O)CC4)nc3c2C(C)C)cn2ncnc2c1C (single isomer, unassigned) [Example 196, 1-((4-(5-(7,8-dimethyl-[1,2,4]triazolo[1,5-a]pyridin-6-yl)-6-isopropyl-4H-pyrrolo[3,2-d]thiazol-2-yl)cyclohexyl)amino)-2-methylpropan-2-ol]
2.08	13.1	5.35	Cc1c(-c2[nH]c3sc(C4CCC(NCC(C)(C)O)CC4)nc3c2C(C)C)cn2ncnc2c1C (single isomer, unassigned) [Example 197, 1-((4-(5-(7,8-dimethyl-[1,2,4]triazolo[1,5-a]pyridin-6-yl)-6-isopropyl-4H-pyrrolo[3,2-d]thiazol-2-yl)cyclohexyl)amino)-2-methylpropan-2-ol]
2.19	2.95	4.98	Cc1c(-c2[nH]c3sc(C4CCC(NCC(C)(C)C)CC4)nc3c2C(C)C)cn2ncnc2c1C (single isomer, unassigned) [Example 199, 4-(5-(7,8-dimethyl-[1,2,4]triazolo[1,5-a]pyridin-6-yl)-6-isopropyl-4H-pyrrolo[3,2-d]thiazol-2-yl)-N-neopentylcyclohexan-1-amine]
0.39	10.1	0.92	Cc1c(-c2[nH]c3sc(C4CCC(NC5CCOCC5)CC4)nc3c2C(C)C)cn2ncnc2c1C (single isomer, unassigned) [Example 200, N-(4-(5-(7,8-dimethyl-[1,2,4]triazolo[1,5-a]pyridin-6-yl)-6-isopropyl-4H-pyrrolo[3,2-d]thiazol-2-yl)cyclohexyl)tetrahydro-2H-pyran-4-amine]
4.21	9.25	6.66	Cc1c(-c2[nH]c3sc(C4CCC(NC5CCOCC5)CC4)nc3c2C(C)C)cn2ncnc2c1C (single isomer, unassigned) [Example 201, N-(4-(5-(7,8-dimethyl-[1,2,4]triazolo[1,5-a]pyridin-6-yl)-6-isopropyl-4H-pyrrolo[3,2-d]thiazol-2-yl)cyclohexyl)tetrahydro-2H-pyran-4-amine]
